MIC and Minimum inhibitory concentration data for three compounds are collected here from patent publication US20260124213A1, “STAPHYLOCOCCUS AUREUS PBP4 INHIBITORS AND METHOD OF USE” (UNIVERSITY OF ROCHESTER, priority 2022, published 2026).

SMILES strings stand for the structures. Values after ≈ are worked out from the molar mass of the structure shown.

One assay deals with CRB. Nature of the assay: MIC testing of antibiotics. The format is cell-based, Staphylococcus aureus. Conditions: for MIC: Staphylococcus aureus, read-out: Minimum inhibitory concentration, CRB. As for the experimental part:
(§1) Bacterial Strains and Chemicals. The bacterial strains used in these studies include: USA300, USA300Δpbp4, USA300Δpbp4 pPBP4, COL, COLn, COLnex, CRB, and CRBΔpbp4. S. aureus strain USA300 is a predominant cause of U.S. community-associated MRSA infections, whereas strain COL is a commonly studied hospital-associated MRSA strain. The S. aureus USA300 pbp4-null strain (USA300Δpbp4) and PBP4 complementation strain (USA300Δpbp4 pPBP4) have been previously described. […] All strains were grown in Mueller Hinton (MH) broth at 37° C., as indicated.
(§2) Prioritized compounds were tested for their ability to reverse PBP4 mediated antibiotic resistance in another S. aureus background using three isogenic strains that became available during the study (generous gift from Dr. S. Chatterjee; University of Maryland). These strains included: 1) COLnex, which is a methicillin susceptible strain, 2) CRB, a methicillin/ceftobiprole resistant strain of COLnex that overproduces PBP4, and 3) CRBΔpbp4, a methicillin susceptible strain of CRB lacking the pbp4 gene.

In another assay the test system is USA300Δpbp4. The experiment in a line: MIC testing of antibiotics. The note with it: Staphylococcus aureus, read-out: Minimum inhibitory concentration. The format is cell-based, Staphylococcus aureus. As for the experimental part:
as §1
(§3) Prior to identifying new PBP4 inhibitors, a screening paradigm to identify existing molecules that reverse the antibiotic resistance profile of wild type cells to that of a pbp4 mutant was developed. To define screening conditions three strains were employed: 1) a wild type USA300 MRSA strain, 2) an isogenic pbp4 deletion strain, and 3) a complemented strain harboring a plasmid wildtype pbp4 copy. The antibiotic susceptibility profile of each strain was measured to determine the magnitude with which PBP4 affects resistance to various antibiotics (Table 1).

A further assay relates to CRBΔpbp4. The experiment in a line: MIC testing of antibiotics. The note with it: Staphylococcus aureus, read-out: Minimum inhibitory concentration. The format is cell-based. As for the experimental part: as §1, §2
The subject of a further assay is COLnex. Nature of the assay: MIC testing of antibiotics. The format is cell-based. The note with it: Staphylococcus aureus, read-out: Minimum inhibitory concentration. As for the experimental part: as §1, §2
Another assay deals with USA300Δpbp4 pPBP4. The experiment in a line: microbe, parasite or virus in culture. The format is cell-based. Conditions: Staphylococcus aureus, read-out: Minimum inhibitory concentration.
In another assay the test system is S. aureus strain USA300. The experiment in a line: microbe, parasite or virus in culture. The format is cell-based, Staphylococcus aureus. The note with it: Staphylococcus aureus, USA300, read-out: Minimum inhibitory concentration. As for the experimental part:
as §1, §3

In the next assay the test system is strain CRBΔpbp4. The experiment in a line: microbe, parasite or virus in culture. Conditions: Staphylococcus aureus, read-out: BPR (ceftobiprole) MIC, Alone. The format is cell-based, Staphylococcus aureus.
A further assay concerns S. aureus strain CRB. Nature of the assay: microbe, parasite or virus in culture. The note with it: Staphylococcus aureus, read-out: BPR (ceftobiprole) MIC, Alone. The format is cell-based, Staphylococcus aureus. As for the experimental part: Fractional Inhibitory Concentration Index (FICI). Fractional inhibitory testing was performed in checkerboard format to determine whether putative PBP4 inhibitors potentiated the antimicrobial effects of β-lactams toward S. aureus strains USA300 and CRB, as previously described (Chojacnki, et al. Journal of Antimicrobial Chemotherapy, 2003, 52, 1). To do so, in triplicate 10^5 CFU of each strain (10 μL) was added to individual wells of a microtiter plate containing 90 μL MH media. […] Plates were incubated at 37° C. for 16-20 hour and the lowest concentration of each test agent that inhibited bacterial growth alone or in combination was determined by the naked eye. The fractional inhibitory concentration (FIC) index was calculated using the formula: FIC of A (MIC of drug A in combination/MIC of drug A alone)+FIC B ([…]/MIC of drug B alone). A synergistic interaction was defined as a FICI value of less than 0.5, an additive interaction was defined as a FICI value between 0.5 and 1.0, an indifferent interaction was defined as a FICI value between 1.0 and 4.0, and an antagonistic interaction was defined as a FICI value of more than 4.0.

As to `CN(C)c1ccc(O)c2c1C[C@H]1C[C@H]3[C@H](N(C)C)C(O)=C(C(N)=O)C(=O)[C@@]3(O)C(O)=C1C2=O` [MIN, minocycline], the MIC in the assay on CRB, with USA300Δpbp4, with CRBΔpbp4, with COLnex, in the assay with USA300Δpbp4 pPBP4 and in the assay on S. aureus strain USA300 was 0.5 µg/mL (≈ 1.09 µM) each time.
In the case of `C[C@H]1COc2c(N3CCN(C)CC3)c(F)cc3c(=O)c(C(=O)O)cn1c23` [LEV, levofloxacin], the MIC with CRB turned out to be 0.5 µg/mL (≈ 1.38 µM); in the assay with USA300Δpbp4, 0.5 µg/mL (≈ 1.38 µM); in the assay on CRBΔpbp4 it was 0.25 µg/mL (≈ 0.692 µM); in the assay with COLnex, 0.25 µg/mL (≈ 0.692 µM); in the assay with USA300Δpbp4 pPBP4, 1 µg/mL (≈ 2.77 µM); in the assay on S. aureus strain USA300, 1 µg/mL (≈ 2.77 µM).
`Nc1nc(/C(=N/O)C(=O)N[C@@H]2C(=O)N3C(C(=O)O)=C(/C=C4\CCN([C@@H]5CCNC5)C4=O)CS[C@H]23)ns1` [BPR, ceftobiprole] yielded a Minimum inhibitory concentration with CRB (CRB) greater than 128 µg/mL. Moreover, the MIC turned out to be 128 µg/mL (≈ 239 µM) in the assay on CRB; 0.25 µg/mL (≈ 0.468 µM) with strain CRBΔpbp4; 0.25 µg/mL (≈ 0.468 µM) with USA300Δpbp4; 128 µg/mL in the assay on S. aureus strain CRB; 0.25 µg/mL (≈ 0.468 µM) with CRBΔpbp4; 0.25 µg/mL (≈ 0.468 µM) in the assay with COLnex. Also, the MIC in the assay with USA300Δpbp4 pPBP4 and in the assay on S. aureus strain USA300 was 0.5 µg/mL (≈ 0.935 µM) throughout.
